Several values for one entry are separate records, joined by “and”; a condition that tells them apart may be missing. Equal entries are not always repeated.
What was measured:
CYP2C9 = target: T1, CYP2C9 (Homo sapiens, UniProt P11712); assay: CYP inhibition (Cyprotex); format: in vitro ADME; conditions: read-out: CYP inhibition 2C9
T1 construct: Cyprotex (contract assay)
Procedure: (§1) 5.2. CYP and hERG inhibition
(§2) Assessment of in vitro drug safety regarding Cytochrom P450 (CYP) inhibition and inhibiton of human ether-à-go-go related gene (hERG) channel with a functional (patch-clamp-based) assay were performed at Cyprotex. Detailed information about the assays can be found in: https://www.cyprotex.com/admepk/in-vitro-metabolism/cytochrome-p450-inhibition, and […]

CYP2C19 = target: T2, CYP2C19 (Homo sapiens, UniProt P33261); assay: CYP inhibition (Cyprotex); format: in vitro ADME; conditions: read-out: CYP inhibition 2C19
T2 construct: Cyprotex (contract assay)
Procedure: as §1, §2

CYP2D6 = target: T3, CYP2D6 (Homo sapiens, UniProt P10635); assay: CYP inhibition (Cyprotex); format: in vitro ADME; conditions: read-out: CYP inhibition 2D6
T3 construct: Cyprotex (contract assay)
Procedure: as §1, §2

CYP3A4 = target: T4, CYP3A4 (Homo sapiens, UniProt P08684); assay: CYP inhibition (Cyprotex); format: in vitro ADME; conditions: read-out: CYP inhibition 3A4
T4 construct: Cyprotex (contract assay)
Procedure: as §1, §2

CYP1A = target: T5, CYP1A (Homo sapiens, UniProt P05177); assay: CYP inhibition (Cyprotex); format: in vitro ADME; conditions: read-out: CYP inhibition 1A
T5 construct: Cyprotex (contract assay)
Procedure: as §1, §2

[1] = Permeability across Calu-3 monolayer; format: in vitro ADME; conditions: human; Calu‐3 lung epithelial cells
Procedure: (§3) subtraction and plotted using GraphPad Prism 8.4.2 (GraphPad Software, San Diego, CA, […]
(§4) USA). Solubility (S) was determined based on the First X value of AUC function using a […]
(§5) For the evaluation of combined phase I and phase II metabolic stability, the compound (1 μM) was incubated with 1 mg/mL pooled liver S9 fraction from the respective species (Xenotech), […]
(§6) 2 mM NADPH, 1 mM UDPGA, 10 mM MgCl2, 5 mM GSH and 0.1 mM PAPS at 37 °C for […]
(§7) 0, 5, 15, 30 or 60 min. The metabolic stability of Testosterone (1 μM) and verapamil (1 μM) […]
(§8) were determined in parallel to confirm the enzymatic activity of the S9 fraction. The […]
(§9) incubation was stopped by precipitation of S9 enzymes with 2 volumes of cold acetonitrile […]
(§10) containing internal standard (750 nM Diphenhydramine). Samples were stored on ice for 10 […]
(§11) Concentration of the remaining test compound at the different time points was analyzed by […]
(§12) Permeability of compound 4 and 17 was assessed in vitro with Calu-3 HTB-55 cell line (ATCC). […]
Pyruvate. […] TEER was monitored during the experiment and epithelial barriers were considered compromised if the TEER fell below 300 during 4 h of experiment duration. […] 50 µL of sample was mixed with 150 µL of ice-cold acetonitrile containing internal standard diphenhydramine (1 µM) and the concentration of compound was analyzed with LC-MS/MS. […]

PqsR = target: T6, PqsR (Pseudomonas aeruginosa, UniProt Q9I4X0); assay: PqsR β-galactosidase reporter-gene assay in E. coli DH5α; format: cell-based
T6 construct: which expresses PqsR and the β-galactosidase LacZ under the control of the pqsA promoter; expressed in transfected cells; host or cells: E. coli DH5α carrying plasmid pEAL08-2
Procedure: 3. Primary Activity Assays
The inverse agonistic/antagonistic activity of potential PqsR ligands was evaluated in a β-galactosidase reporter gene assay in E. coli as previously described.[3] In short, test compounds were co-incubated with E. coli DH5α cells containing the plasmid pEAL08-2,[4] which expresses PqsR and the β-galactosidase LacZ under the control of the pqsA promoter.
The inverse agonistic/antagonistic activity of compounds was measured in the presence of 50 nM PQS. After incubation, galactosidase activity was quantified photometrically and expressed as ratio of controls. The given IC50 values represent the mean of at least two independent experiments using at least eight different concentrations of test compound with n = 4. Non-linear regression analysis was performed using OriginPro 2020. […]

hERG channel = target: T7, hERG channel (Homo sapiens, UniProt Q12809); assay: hERG functional patch-clamp inhibition assay; format: cell-based
T7 construct: Cyprotex (contract assay)
Procedure: as §1, §2

[2] = Metabolic stability, rat liver S9; format: in vitro ADME; conditions: pooled liver S9 fraction, Table S4, n=1, read-out: t1/2 rat liver S9
Procedure: as §5, §6, §7, §8, §9, §10
(§13) min and precipitated protein was removed by centrifugation (10 min, 4 °C, 17,000 g).
as §11
(§14) LC-MS/MS (TSQ Quantum Access MAX, Thermo Fisher, Dreieich, Germany) and used to […]
(§15) determine half-life (t1/2). Stability of compound 4 in further S9 fractions are summarized in […]
(§16) Table S4. Metabolic stability studies in various S9 fractions. […]

[3] = Metabolic stability, guinea pig liver S9; format: in vitro ADME; conditions: pooled liver S9 fraction, Table S4, read-out: t1/2 guinea pig liver S9
Procedure: as §3, §4, §5, §6, §7, §8, §9, §10, §13, §11, §14, §15, §16
guinea pig liver S9 92.5 ± 5.4
5.6. Permeability studies
as §12

T2 sequence (P33261 whole entry): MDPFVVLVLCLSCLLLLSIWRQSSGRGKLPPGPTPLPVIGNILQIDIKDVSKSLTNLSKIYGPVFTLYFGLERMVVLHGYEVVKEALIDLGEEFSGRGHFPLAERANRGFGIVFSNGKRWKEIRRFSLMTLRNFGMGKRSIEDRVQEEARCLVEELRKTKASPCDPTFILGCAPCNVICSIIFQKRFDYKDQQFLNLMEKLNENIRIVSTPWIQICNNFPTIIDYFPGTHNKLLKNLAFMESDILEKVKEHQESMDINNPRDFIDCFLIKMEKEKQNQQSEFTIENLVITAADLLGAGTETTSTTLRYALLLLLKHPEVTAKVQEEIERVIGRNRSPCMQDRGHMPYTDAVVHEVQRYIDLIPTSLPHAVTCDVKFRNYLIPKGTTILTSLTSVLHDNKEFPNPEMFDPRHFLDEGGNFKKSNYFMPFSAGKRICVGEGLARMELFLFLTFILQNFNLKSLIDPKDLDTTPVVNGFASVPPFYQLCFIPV
T6 sequence (Q9I4X0 whole entry): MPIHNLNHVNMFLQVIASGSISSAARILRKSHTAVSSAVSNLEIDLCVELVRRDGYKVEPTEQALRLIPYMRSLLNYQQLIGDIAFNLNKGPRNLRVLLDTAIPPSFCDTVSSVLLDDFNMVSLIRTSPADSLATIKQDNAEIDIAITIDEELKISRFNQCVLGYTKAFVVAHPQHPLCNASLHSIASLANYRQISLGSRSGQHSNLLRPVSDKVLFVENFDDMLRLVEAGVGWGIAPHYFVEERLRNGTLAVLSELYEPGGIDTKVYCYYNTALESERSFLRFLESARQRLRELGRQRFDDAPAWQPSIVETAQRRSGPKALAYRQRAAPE
T1 sequence (P11712 whole entry): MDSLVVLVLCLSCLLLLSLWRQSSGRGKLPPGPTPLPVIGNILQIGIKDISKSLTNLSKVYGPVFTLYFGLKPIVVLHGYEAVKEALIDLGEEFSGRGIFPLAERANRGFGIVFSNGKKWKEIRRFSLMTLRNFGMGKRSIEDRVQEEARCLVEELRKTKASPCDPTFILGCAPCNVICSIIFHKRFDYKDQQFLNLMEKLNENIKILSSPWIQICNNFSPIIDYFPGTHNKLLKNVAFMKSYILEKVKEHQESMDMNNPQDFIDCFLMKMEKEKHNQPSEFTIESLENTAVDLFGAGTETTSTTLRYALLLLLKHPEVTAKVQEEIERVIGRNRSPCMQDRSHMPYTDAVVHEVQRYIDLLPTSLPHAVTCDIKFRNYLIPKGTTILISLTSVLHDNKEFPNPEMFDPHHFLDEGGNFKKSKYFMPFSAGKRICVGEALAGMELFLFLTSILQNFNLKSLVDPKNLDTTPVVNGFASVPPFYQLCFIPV
T3 sequence (P10635 whole entry): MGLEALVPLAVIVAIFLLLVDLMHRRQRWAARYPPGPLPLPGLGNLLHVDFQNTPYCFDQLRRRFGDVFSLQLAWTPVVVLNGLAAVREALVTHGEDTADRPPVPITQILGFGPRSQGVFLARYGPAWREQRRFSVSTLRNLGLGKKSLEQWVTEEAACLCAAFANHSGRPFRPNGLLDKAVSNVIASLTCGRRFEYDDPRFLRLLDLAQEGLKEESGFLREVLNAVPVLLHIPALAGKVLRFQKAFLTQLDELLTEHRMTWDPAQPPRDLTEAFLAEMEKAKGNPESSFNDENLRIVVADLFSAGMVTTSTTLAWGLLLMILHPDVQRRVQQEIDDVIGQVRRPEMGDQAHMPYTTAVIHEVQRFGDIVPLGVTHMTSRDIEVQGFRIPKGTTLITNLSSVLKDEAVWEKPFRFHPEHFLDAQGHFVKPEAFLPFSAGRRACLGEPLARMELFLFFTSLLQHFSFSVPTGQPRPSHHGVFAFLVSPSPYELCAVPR
T4 sequence (P08684 whole entry): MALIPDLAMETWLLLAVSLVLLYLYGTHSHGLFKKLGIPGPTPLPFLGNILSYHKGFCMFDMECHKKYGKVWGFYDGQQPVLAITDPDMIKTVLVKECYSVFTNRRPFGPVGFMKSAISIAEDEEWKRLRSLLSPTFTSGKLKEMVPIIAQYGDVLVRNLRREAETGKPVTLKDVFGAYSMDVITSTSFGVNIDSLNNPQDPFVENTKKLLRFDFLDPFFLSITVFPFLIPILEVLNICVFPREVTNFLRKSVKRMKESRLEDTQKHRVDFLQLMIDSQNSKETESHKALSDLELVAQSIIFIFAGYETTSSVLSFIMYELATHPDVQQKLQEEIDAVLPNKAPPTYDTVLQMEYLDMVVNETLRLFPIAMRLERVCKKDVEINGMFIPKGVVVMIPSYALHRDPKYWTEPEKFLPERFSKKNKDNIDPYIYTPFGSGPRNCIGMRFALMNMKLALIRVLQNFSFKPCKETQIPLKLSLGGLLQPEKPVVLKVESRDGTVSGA
T5 sequence (P05177 2-516 limits assumed): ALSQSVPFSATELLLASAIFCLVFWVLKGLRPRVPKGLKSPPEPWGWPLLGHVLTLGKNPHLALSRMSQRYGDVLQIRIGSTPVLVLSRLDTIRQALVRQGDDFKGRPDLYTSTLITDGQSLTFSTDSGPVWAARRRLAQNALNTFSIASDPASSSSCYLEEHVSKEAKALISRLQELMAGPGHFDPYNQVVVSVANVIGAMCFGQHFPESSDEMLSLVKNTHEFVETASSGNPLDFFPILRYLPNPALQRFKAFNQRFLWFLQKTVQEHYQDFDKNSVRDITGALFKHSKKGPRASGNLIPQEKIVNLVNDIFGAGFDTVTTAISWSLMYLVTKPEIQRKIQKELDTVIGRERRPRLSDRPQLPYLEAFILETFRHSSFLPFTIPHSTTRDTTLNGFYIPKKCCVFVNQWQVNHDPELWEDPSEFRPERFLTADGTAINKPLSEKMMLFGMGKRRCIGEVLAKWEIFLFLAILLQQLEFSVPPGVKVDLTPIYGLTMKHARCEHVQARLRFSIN
T7 sequence (Q12809 whole entry): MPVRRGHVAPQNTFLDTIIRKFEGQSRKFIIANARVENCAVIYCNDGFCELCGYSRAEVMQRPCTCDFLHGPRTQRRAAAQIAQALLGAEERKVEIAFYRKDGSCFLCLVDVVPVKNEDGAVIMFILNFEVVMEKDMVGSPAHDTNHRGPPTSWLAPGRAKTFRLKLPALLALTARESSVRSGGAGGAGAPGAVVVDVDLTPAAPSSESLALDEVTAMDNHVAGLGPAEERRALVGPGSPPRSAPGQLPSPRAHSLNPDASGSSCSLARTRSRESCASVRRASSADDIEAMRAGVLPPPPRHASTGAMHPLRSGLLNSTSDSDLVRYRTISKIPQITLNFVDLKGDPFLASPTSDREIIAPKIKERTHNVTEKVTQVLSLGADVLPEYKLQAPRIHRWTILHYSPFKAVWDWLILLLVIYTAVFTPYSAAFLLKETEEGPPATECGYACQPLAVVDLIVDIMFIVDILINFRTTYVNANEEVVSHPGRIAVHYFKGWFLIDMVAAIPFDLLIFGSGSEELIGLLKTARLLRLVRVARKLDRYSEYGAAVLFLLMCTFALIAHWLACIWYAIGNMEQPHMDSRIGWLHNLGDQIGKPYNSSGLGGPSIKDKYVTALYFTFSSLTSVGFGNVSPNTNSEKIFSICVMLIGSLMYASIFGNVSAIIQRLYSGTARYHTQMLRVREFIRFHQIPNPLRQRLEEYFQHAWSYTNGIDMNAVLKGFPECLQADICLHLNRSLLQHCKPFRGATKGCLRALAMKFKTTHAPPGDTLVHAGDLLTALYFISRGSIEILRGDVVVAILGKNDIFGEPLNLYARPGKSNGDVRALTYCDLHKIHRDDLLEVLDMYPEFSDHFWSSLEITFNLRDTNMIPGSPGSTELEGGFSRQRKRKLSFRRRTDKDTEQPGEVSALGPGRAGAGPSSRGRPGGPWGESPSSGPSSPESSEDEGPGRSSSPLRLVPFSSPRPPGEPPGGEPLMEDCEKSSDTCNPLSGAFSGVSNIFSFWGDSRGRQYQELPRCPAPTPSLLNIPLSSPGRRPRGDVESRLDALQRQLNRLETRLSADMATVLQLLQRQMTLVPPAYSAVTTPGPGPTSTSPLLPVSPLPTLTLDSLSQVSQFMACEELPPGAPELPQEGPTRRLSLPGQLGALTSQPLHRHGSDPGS

For `COc1ccc(-n2cc(CNc3ccnc(C(F)(F)F)c3)nn2)cc1Cl` [Compound 17], the IC50 (CYP2C9) was over 25 µM, the IC50 (CYP2C19) was 3.6 µM and 3.55 µM and the IC50 (CYP2D6) was over 25 µM. It also gave an IC50 (CYP3A4) of over 25 µM, an IC50 (CYP1A) of 22.1 µM and a Papp at 4 h [1] of 11.4 ×10⁻⁶ cm/s. The IC50 (PqsR) was 0.008 µM, the “fold higher activity than monosubstituted 11” value (PqsR; PqsR reporter-gene IC50, versus 11) was 10 fold and the IC50 (hERG channel) was over 25 µM.
For `FC(F)(F)c1cc(NCc2cn(-c3ccc(Oc4ccccc4)cc3)nn2)ccn1` [Compound 4], the IC50 (CYP2C9) was 16.4 µM, the IC50 (CYP2C19) was 20.3 µM and the IC50 (CYP2D6) was over 25 µM. For the same compound, the IC50 (CYP3A4) was 15 µM, the IC50 (CYP1A) was over 25 µM and the half-life at 1 μM [2] was 24.2 min. The Papp at 4 h [1] was 5.3 ×10⁻⁶ cm/s, the half-life at 1 μM [3] was 92.5 ± 5.4 min and the IC50 (PqsR) was 0.011 µM. For the same compound, the IC50 (hERG channel) was over 25 µM.

Reference: article PMC8224453, “A New PqsR Inverse Agonist Potentiates Tobramycin Efficacy to Eradicate Pseudomonas aeruginosa Biofilms” (Advanced Science, 2021)
